Drawing on patent publication US20250099442A1, “COMPOUNDS FOR USE IN TREATING NEUROLOGICAL DISORDERS” (Prothena Biosciences Limited, priority 2021, published 2025), this text covers IC50 for 1 compound.

The target of the test is DYRK1A (Homo sapiens (Human), UniProt Q13627). The test is described as follows: DYRK1A Inhibition Assay. In kind it is biochemical. To be noted: Compounds of Formula (I); DYRK1A 1 nM, ATP 20 μM, Ser/Thr 18 peptide 2 μM, 90 minutes; read-out: DYRK1 IC50. The method, then: • DYRK1A—Invitrogen #PV4105 • Ser/Thr 18 peptide—Invitrogen #PR8227U • Phos-Ser/Thr 18 peptide—Invitrogen #PR8229U • Assay plate—PerkinElmer #6007279 • ATP—Sigma #A7699-5G • Development reagent A—Invitrogen #PR5194B • Development buffer—Invitrogen #PR4876B
• 1. Test compounds were diluted to 1 mM in DMSO • 2. Stock was further diluted 3-fold using Echo platform • 3. 100 nL of DMSO into Columns 1 and 24 and 100 nL of compounds dilutions to Columns 2-23 in a plate.
• 1. Add 5 μL enzyme & substrate mixture to each well in Column 2-23 and A24-H24 wells of the 384-well assay plate; • 2. Add 5 μL 0% Phosphorylation control to A1-H1 and I24-P24 wells of the assay plate; • 3. Add 5 μL 100% Phosphorylation control to I1-P1 wells of the assay plate; • 4. Spin the assay plate (1000 rpm, 1 minute @23° C.); • 5. Incubate enzyme with compounds for 15 minutes at 23° C.; • 6. Add 5 μL ATP solution to each well of the assay plate; • 7. Spin the plate (1000 rpm, 1 minute @23° C.); • 8. Incubate the assay plate for 90 minutes at 23° C.; • 9. Add 10 μL Development reagent A to each well of the assay plate; • 10. Centrifuge the plate at 1000 rpm about 15 seconds and seal a film over assay plate. Incubate the assay plate for 30 minutes at 23° C. • 11. Read assay plates on Envision (see Tables A and B).
Final Compound Concentrations […]

Turning to `C(#CC1CCNCC1)c1ccc2c(-c3ccncc3)c[nH]c2n1` [Compound 97], the IC50 lay within 100 to 1000 nM.
